Earlier results, collected in patent publication US20180055752A1, “TOPICAL COMPOSITIONS TO REDUCE HAIR GROWTH” (The Regents of the University of California, priority 2016, published 2018).
“Also recorded” adds a separate entry of the source. Where two headings read alike, the source gives them in different places.

What was measured:
[1] = system: cultured human hair follicles
deer hair follicle = details: tolbutamide 1 mM
[2] = system: Kir6.2/SUR1 and SUR2B K-ATP channels
[3] = eight children treated for hypoglycemia of infancy

Row | Compound | effect on anagen [1] | effect on hair follicle growth stimulated by minoxidil / diazoxide (deer hair follicle; 10 μM minoxidil) | K-ATP channel subtype selectivity and potency [2] | K-ATP channel subtype selectivity and potency ([2]; listed as Tolbutamide) | hypertrichosis as side effect [3] | inhibition of hair follicle growth (deer hair follicle; glibenclamide at a single concentration)
1 | CCCCNC(=O)NS(=O)(=O)c1ccc(C)cc1 [tolbutamide] | shorten anagen | abolished the effect of 10 μM minoxidil, and diazoxide | selectively inhibits Kir6.2/SUR1 K-ATP channels with low potency | selectively inhibits Kir6.2/SUR1 KATP channels with low potency | – | –
2 | CC1=NS(=O)(=O)c2cc(Cl)ccc2N1 [diazoxide] | – | – | – | – | all developed hypertrichosis | –
3 | COc1ccc(Cl)cc1C(=O)NCCc1ccc(S(=O)(=O)NC(=O)NC2CCCCC2)cc1 [glibenclamide] | – | – | nonselectively blocks both SUR1 and SUR2B forms with high affinity; also recorded: non-selectively blocks both SUR1 and SUR2B forms with high affinity | – | – | did not inhibit deer hair follicle growth
